# Test system: partial liver transplant
# Assay: Liver regeneration-promoting effect in rat 30% orthotopic partial liver transplantation
# Type: in vivo
# Details: for Relative liver gain: (liver weight on day 5) / (liver weight on day 0); for Relative liver gain / Liver weight gain: transfusion 50 ml/kg/day up to day 5, mean±SD; for Liver weight gain: (liver weight on day 5) − (liver weight on day 0)
# Description: Male Wistar rats at 8 weeks of age (240-280g; 8-9 animals per group) were used for 30% orthotopic partial liver transplantation. Isolation of the liver from donors was performed as follows. Animals were abdominally incised under ether anesthesia and about 70% of the liver was resected and the common bile duct and arteries were separated immediately before starting liver perfusion with cold physiological saline from the portal vein. After starting perfusion, the remaining liver with the portal vein and the posterior vena cava-was removed from the donor animal. Recipients were abdominally incised under Nembutal anesthesia and the whole liver was resected and the upper end of the posterior vena cava of the graft was continuously sutured (7-0 proline) with the proximal end of the posterior vena cava of the recipients. The donor posterior vena cava of the graft was sutured end-to-end with that of the recipient, and the portal vein and common bile duct of the graft were anastomosed with those of the recipient, respectively, by the cuff technique. The operation period was 45 minutes on average, the […] period was within 900 seconds, and the total period for cold-storing the graft was 1 hour. Immediately after the operation was completed, a catheter was inserted from the jugular vein. The catheter was passed through the subcutaneous tunnel across both scapulae, and connected to a swivel through a protective coil after a harness was put on the animal. Rats were transferred to a metabolic cage and divided into the following two groups and continuously pumped with the transfusion formula at an administration rate of 50 ml/kg/day up to day 5. Valine group: An aqueous solution of L-valine (Japanese Pharmacopoeia) at 3.376% was transfused in combination with glucose at 5% on the day of operation and 20% on days 1-5. Control group: A solution of a 10% amino acid blend formula (Moripron F® made by Roussel Morishita Co., Ltd.) diluted in distilled water at a total nitrogen level equivalent to that of the valine group was transfused in combination with glucose at 5% on the day of operation and 20% on days 1-5. Animals were given free access to normal feed and water. On day 5, animals were abdominally incised under ether anesthesia and blood was collected from the abdominal aorta and the liver was separated after bleeding. Serum protein (TP), albumin (ALB), GOT, GPT and LDH and the liver weight were determined. The resected liver was fixed with formalin to prepare a hematoxylin-eosin stained sample for histological tests. The measurement results were expressed in mean±SD and statistically analyzed by the Mann-Whitney U test to show a significant difference if p<0.05. Liver weight gain and relative liver gain were determined as morphologic indications of the liver-regenerating effect. Here, the liver weight gain means (liver weight on day 5)-(liver weight on day 0), and the relative liver gain means (liver weight on day 5)/(liver weight on day 0). Not the liver weight itself but the liver weight gain was chosen as indication because liver transplants vary in weight and the difference between the weight of each liver transplant (weight on day 0) and the weight of the regenerated transplant (weight on day 5) more appropriately indicates changes in the transplant.
compound,measurement,setting,value
"CC(C)[C@H](N)C(=O)O [Valine, L-valine]",Relative liver gain,,2.24 ± 0.18
same,Relative liver gain,listed as valine,2.24±0.18
same,Liver weight gain,,3.88 ± 0.66 g
same,Liver weight gain,listed as valine,3.88 ± 0.66 g
same,Histopathological tests of the regenerated liver,"day 5, hematoxylin-eosin stained sample",No abnormal observation
same,Edema or necrosis of hepatocytes,"day 5, histology of regenerated liver",Neither control group nor valine group showed edema or necrosis
same,Liver weight (g) on day 5,"male Wistar rats, continuous i.v. transfusion 50 ml/kg/day up to day 5, mean±SD",7.05 ± 0.99 g
same,Liver weight (g) on day 0,"male Wistar rats, graft weight on day of transplantation (baseline), mean±SD",3.16 ± 0.45 g
same,"Biochemical blood tests (TP, ALB, GOT, GPT, LDH)","serum on day 5, valine group vs control group",No significant difference

# Reference: patent US6660771B1, “Remedies for liver regeneration of transplanted liver” (Chugai Seiyaku Kabushiki Kaisha, priority 1999, dated 2003)
